SMILES strings stand for the structures.

Tested on in the first series: not listed separately
As to the kind of experiment: Half-life in rat plasma was determined. It counts as ADME, organism-based.
Conditions: not given; call rule not given here
The molecule `CCC(CC)OC(=O)c1cn(Cc2ccccc2F)c2cc(-c3ccc(NC(C)=O)cc3)c(CN(C)CCc3ccccn3)n2c1=O` registered a half-life of 28 min.

The target in a further series is T1, Gonadotropin-releasing hormone receptor (Homo sapiens, UniProt P30968).
T1 sequence (P30968 whole entry): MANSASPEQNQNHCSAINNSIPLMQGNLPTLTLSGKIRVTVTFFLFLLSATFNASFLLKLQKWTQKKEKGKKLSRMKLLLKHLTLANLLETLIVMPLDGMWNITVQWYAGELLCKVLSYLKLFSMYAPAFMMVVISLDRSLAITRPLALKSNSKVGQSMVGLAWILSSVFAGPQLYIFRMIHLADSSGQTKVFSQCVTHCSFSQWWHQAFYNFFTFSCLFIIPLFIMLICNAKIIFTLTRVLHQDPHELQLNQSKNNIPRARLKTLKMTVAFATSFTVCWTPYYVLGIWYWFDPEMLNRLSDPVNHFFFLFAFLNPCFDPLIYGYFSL
Briefly: Binding evaluated in cloned human Gonadotropin-releasing hormone receptor by displacement of [125 I-Tyr, DLeu, NMeLeu, Pro-NEt]GnRH agonist.
Conditions: not given
With `COc1ccc(-c2nc3n(Cc4ccccc4F)c(C)c(-c4ccc5c(c4)OCO5)c(=O)n3c2CN(C)C2CCN(C)CC2)cc1`, the Ki entry was “Not Active”.

Staying with this series, now noted: read-out: Ki.
For `COc1ccc(-c2nc3n(Cc4ccccc4F)c(C)c(-c4ccc(OC)cc4)c(=O)n3c2CN(C)CCc2ccccn2)cc1`, the Ki came to 18 nM. On the same count and under the same terms, the same measure for `COc1ccc(-c2nc3n(Cc4ccccc4F)c(C)c(-c4cc(Cl)cc(Cl)c4)c(=O)n3c2CN(C)CCc2ccccn2)cc1`: 100 nM; for `COc1ccc(-c2nc3n(Cc4ccccc4F)c(C)c(-c4cccc(C(F)(F)F)c4)c(=O)n3c2CN(C)CCc2ccccn2)cc1`: 140 nM; for `COCCN(C)Cc1c(-c2ccc(OC)cc2)nc2n(Cc3ccccc3F)c(C)c(-c3ccc4c(c3)OCO4)c(=O)n12`: 150 nM. On the same count and under the same terms, next, `COc1ccc(-c2nc3n(Cc4ccccc4F)c(C)c(-c4ccc5c(c4)OCO5)c(=O)n3c2CN2CCOCC2)cc1`: 28000 nM; `COc1ccc(-c2nc3n(Cc4ccccc4F)c(C)c(-c4cccc(F)c4)c(=O)n3c2CN(C)CCc2ccccn2)cc1`: 79 nM. `COc1ccc(-c2nc3n(Cc4ccccc4F)c(C)c(-c4ccc5c(c4)OCO5)c(=O)n3c2CN(C)CCc2ccccn2)cc1`: the Ki came out at 11 nM. Same read-out and setting: the same measure for `COc1ccc(-c2nc3n(Cc4ccccc4F)c(C)c(-c4cccc(OC)c4)c(=O)n3c2CN(C)CCc2ccccn2)cc1`: 4.6 nM; for `COc1ccc(-c2nc3n(Cc4ccccc4F)c(C)c(Br)c(=O)n3c2CN(C)CCc2ccccn2)cc1`: 2500 nM. The same measure, in the same setting: next, `CCC(CC)OC(=O)c1cn(Cc2ccccc2F)c2nc(-c3ccc(OC)cc3)c(CN(C)CCc3ccccn3)n2c1=O`: 230 nM; `CCN(CC)CCN(C)Cc1c(-c2ccc(OC)cc2)nc2n(Cc3ccccc3F)c(C)c(-c3ccc4c(c3)OCO4)c(=O)n12`: 130 nM. On the same count and under the same terms, next, `COc1ccc(-c2nc3n(Cc4ccccc4F)c(C)c(-c4ccc5c(c4)OCO5)c(=O)n3c2CN(C)Cc2ccccc2)cc1`: 47 nM. Consider `COc1ccc(-c2nc3n(Cc4ccccc4F)c(C)c(-c4ccc5c(c4)OCO5)c(=O)n3c2CN2CCCN(C)CC2)cc1`, for which the Ki was found to be 9500 nM.

Consider `CCCCN(C)Cc1c(-c2ccc(OC)cc2)nc2n(Cc3ccccc3F)c(C)c(-c3ccc4c(c3)OCO4)c(=O)n12`, for which the inhibitory constant (Ki) came out at 220 nM. Still for that read-out and setting: the same measure for `COc1ccc(-c2nc3n(Cc4ccccc4F)c(C)c(-c4ccc5c(c4)OCO5)c(=O)n3c2CN(C)CCc2ccccc2F)cc1`: 67 nM.

`COc1ccc(-c2nc3n(Cc4ccccc4F)c(C)c(-c4ccccc4OC)c(=O)n3c2CN(C)CCc2ccccn2)cc1`: the Ki amounted to 65 nM. For `COc1ccc(-c2nc3n(Cc4ccccc4F)c(C)c(-c4ccc5c(c4)OCO5)c(=O)n3c2CN(C)CCc2ccccc2)cc1`, the inhibitory constant (Ki) was found to be 110 nM. Same read-out and setting: the same measure for `COc1ccc(-c2nc3n(Cc4ccccc4F)c(C)c(-c4cc(OC)c(OC)c(OC)c4)c(=O)n3c2CN(C)CCc2ccccn2)cc1`: 370 nM; for `COc1ccc(-c2nc3n(Cc4ccccc4F)c(C)c(-c4ccc(OC)c(OC)c4)c(=O)n3c2CN(C)CCc2ccccn2)cc1`: 110 nM. Still for that read-out and setting: the same measure for `COc1ccc(-c2nc3n(Cc4ccccc4F)c(C)c(-c4cccc(S)c4)c(=O)n3c2CN(C)CCc2ccccn2)cc1`: 56 nM. Same read-out and setting: the same measure for `COc1ccc(-c2nc3n(Cc4ccccc4F)c(C)c(-c4ccc5c(c4)OCO5)c(=O)n3c2CN(C)CCc2ccncc2)cc1`: 1400 nM.

In general, half-life refers to how long it takes for the measured level to halve. Lower therefore signals rapid decline. As usually defined, the Ki is a measure of affinity in units of concentration, obtained from inhibition or displacement.

The values above are taken from ChEMBL document CHEMBL1136027, “Design, synthesis and structure-activity relationships of novel imidazolo[1,2-a]pyrimid-5-ones as potent GnRH receptor antagonists” (Bioorg Med Chem Lett, 2002).
